A short description of data set [1]: Rubine Dye test for substantivity on hair (chromameter). The following applies: Example 3, second matrix of prototypes. The text has this:
The substrate (i.e., surface to which they are applied) in cosmetic applications is either the hair or the skin. […] Cationic conditioning agents act by binding a moiety, typically a long chain alkyl group, to the hair or skin by electrostatic attraction (ionic bonding), but also, weaker forces such as dipole-dipole interactions, and furthermore van der Waals forces can assist in substrate binding. Substantivity is a term used to describe how well a conditioning agent binds to the surface of the substrate. Substantivity of hair conditioning agents is often determined by performing the Rubine Dye test. The Rubine Dye test is designed to show how much of the conditioning ingredient adheres to the hair. Results from the Rubine Dye test are normally evaluated by comparison to some known standard or benchmark.
The polyesteramine prototypes were tested internally for substantivity using the Rubine Dye test protocol. In the Rubine Dye test, the prototypes were benchmarked against Dehyquart® L-80 (dicocoylethyl hydroxyethylmonium methosulfate (and) propylene glycol), a commercial ester quaternary. The materials and equipment used in performing the Rubine Dye analysis were:
The protocol used to perform the Rubine Dye analysis on polyesteramine prototypes and Dehyquart® L-80 and the compositions of ingredients used is described below.
First, a stock dye solution was prepared using the following formula and preparation procedure: […]
In a small vessel, deionized water, Lumicrease Bordeaux 3LR Powder, and glacial acetic acid were agitated at about 20 to about 25° C. until a solution was obtained. […]
From about 0.95 to about 1.05 grams of hair was weighed out and glued onto pre-cut plastic sheets (1.5″×1.5″) using a hot glue gun to attach the swatches to the sheets. […] Quantitative comparisons of dye up-take and relative substantivity of each polymer were performed using a Minolta chromameter. Additionally, dye up-take was evaluated qualitatively by taking photographs of the hair swatches using a digital camera. […]

Data set [2] deals with EpiOccular® model made of human-derived epidermal keratinocytes cultured to make them similar to human corneal tissue. It is filed as cell-based. How it is done: Irritancy to the eyes and to the skin was tested in-vitro using the EpiDerm® and EpiOccular® test models. EpiDerm® is a human test model of skin made up of normal epidermal keratinocytes. The EpiOccular® model is made of human-derived epidermal keratinocytes cultured to make them similar to human corneal tissue. In each of the tests, tissue samples are treated with the test article for various exposure times. Following treatment, the viability of the tissue is determined using MTT uptake and conversion, and the absorbance of the sample is measured at 540 nanometers (nm) wavelength using a reference wavelength of 690 nm. The viability is expressed as a percentage of control values. The mean percentage viability for each time point is used to calculate the ET50, which represents the time at which the tissue viability is reduced 50% compared to control tissue. […] Typically, higher molecular weight results in lower eye and skin irritancy.

This note sets out measurements from patent US20080279795A1, “Tertiary Amine Functional Complex Polyester Polymers And Methods Of Production And Use” (priority 2003, published 2008).

The structures appear in SMILES notation.

In data set [1] (higher a = more deposition), `CCCCCCCCCCCCCCCCCC(=O)NCCCN(C)C` [Lexamine ® S-13, stearamidopropyldimethylamine] came in with an a-scale value of 19.16. In addition, in data set [1] (lower L = more deposition), the L-scale value came to 65.15. The b-scale value in data set [1] (lower b = more deposition) stood at 8.57.
Consider `CCCCCCCCCCCCCCCC[N+](C)(C)C.[Cl-]` [cetrimonium chloride], for which, in data set [2] (exposure times 16, 64 and […], time at which tissue viability is reduced 50% vs control), the “EpiOcular ® ET50” value turned out to be 116.9 min. Besides, the “irritancy classification, eyes” value in data set [2] (from EpiOcular ET50) was “more irritating”.
